Assay results from patent publication US10053417B2, “Neprilysin inhibitors” (THERAVANCE BIOPHARMA R&D IP, LLC, priority 2013, dated 2018).

Biological target: T1, human NEP (Homo sapiens, UniProt P08473)
T1 construct: purchased R&D Systems, Minneapolis, Minn; 1182-ZN
Test: In vitro enzyme inhibition assay, inhibitor potency at human NEP (Assay 1)
Type: biochemical
Settings: recombinant human NEP; fluorogenic peptide substrate 10 μM; 37° C.; values given as ranges
Experimental: The inhibitory activities of compounds at human and rat neprilysin (EC 3.4.24.11; NEP) and human angiotensin converting enzyme (ACE) were determined using in vitro assays as described below.
Recombinant human NEP and recombinant human ACE were obtained commercially (R&D Systems, Minneapolis, Minn., catalog numbers 1182-ZN and 929-ZN, respectively). The fluorogenic peptide substrate Mca-D-Arg-Arg-Leu-Dap-(Dnp)-OH (Medeiros et al. (1997) Braz. J. Med. Biol. Res. 30:1157-62; Anaspec, San Jose, Calif.) and Abz-Phe-Arg-Lys(Dnp)-Pro-OH (Araujo et al. (2000) Biochemistry 39:8519-8525; Bachem, Torrance, Calif.) were used in the NEP and ACE assays respectively.
The assays were performed in 384-well white opaque plates at 37° C. using the fluorogenic peptide substrates at a concentration of 10 μM in Assay Buffer (NEP: 50 mM HEPES, pH 7.5, 100 mM NaCl, 0.01% polyethylene glycol sorbitan monolaurate (Tween-20), 10 μM ZnSO4; ACE: 50 mM HEPES, pH 7.5, 100 mM NaCl, 0.01% Tween-20, 1 μM ZnSO4).
Test compounds were assayed over the range of concentrations from […] to 20 μM. Test compounds were added to the enzymes and incubated for 30 minute at 37° C. prior to initiating the reaction by the addition of substrate. Reactions were terminated after 20 minutes of incubation at 37° C. by the addition of glacial acetic acid to a final concentration of 3.6% (v/v).
Plates were read on a fluorometer with excitation and emission wavelengths set to 320 nm and 405 nm, respectively. Inhibition constants were obtained by nonlinear regression of the data using the equation (GraphPad Software, Inc., San Diego, Calif.): ν=ν0/[1+(I/K′)] where ν is the reaction rate, ν0 is the uninhibited reaction rate, I is the inhibitor concentration and K′ is the apparent inhibition constant.
Compounds of the invention were tested in this assay and found to have pKi values at human NEP as follows.

T1 sequence (P08473 52-750 limits assumed): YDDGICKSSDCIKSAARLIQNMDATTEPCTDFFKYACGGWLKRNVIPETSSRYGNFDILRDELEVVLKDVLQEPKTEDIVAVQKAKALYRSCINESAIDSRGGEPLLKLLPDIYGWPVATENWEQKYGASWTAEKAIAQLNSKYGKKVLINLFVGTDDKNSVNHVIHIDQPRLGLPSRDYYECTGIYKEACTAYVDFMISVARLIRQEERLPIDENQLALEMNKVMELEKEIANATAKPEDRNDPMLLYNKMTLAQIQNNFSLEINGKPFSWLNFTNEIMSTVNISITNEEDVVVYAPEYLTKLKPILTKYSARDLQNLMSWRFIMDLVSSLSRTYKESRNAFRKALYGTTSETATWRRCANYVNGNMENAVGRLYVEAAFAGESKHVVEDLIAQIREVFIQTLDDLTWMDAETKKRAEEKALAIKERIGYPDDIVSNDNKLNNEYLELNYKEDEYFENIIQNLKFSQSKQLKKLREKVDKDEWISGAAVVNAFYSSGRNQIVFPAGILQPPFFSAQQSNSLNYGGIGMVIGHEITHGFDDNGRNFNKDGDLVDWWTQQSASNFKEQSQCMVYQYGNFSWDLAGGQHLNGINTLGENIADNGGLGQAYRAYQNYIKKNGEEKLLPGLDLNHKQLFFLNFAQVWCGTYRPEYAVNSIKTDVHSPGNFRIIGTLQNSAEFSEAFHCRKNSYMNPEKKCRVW

## O=C(N[C@H](Cc1ccc(-c2cccc(Cl)c2)cc1)C[C@@H](O)C(=O)O)C(=O)N1CCN(C(=O)c2ccco2)CC1 [Example 4-36, (2R,4R)-5-(3′-Chlorobiphenyl-4-yl)-4-{2-[4-(furan-2-carbonyl)-piperazin-1-yl]-2-oxo-acetylamino}-2-hydroxypentanoic acid]
  Ki: 1 to 10 nM

## O=C(N[C@H](Cc1ccc(-c2cccc(Cl)c2)cc1)C[C@@H](O)C(=O)O)C(=O)N1CCC(c2ccncc2)CC1 [Example 4-23, (2R,4R)-5-(3′-Chlorobiphenyl-4-yl)-2-hydroxy-4-[2-oxo-2-(3,4,5,6-tetrahydro-2H-[4,4′]bipyridinyl-1-yl)-acetylamino]pentanoic acid]
  Ki: 10 to 31.6 nM

## O=C(N[C@H](Cc1ccc(-c2cccc(Cl)c2)cc1)C[C@@H](O)C(=O)O)C(=O)N1CCC[C@H](CO)C1 [Example 4-33, (2R,4R)-5-(3′-Chlorobiphenyl-4-yl)-2-hydroxy-4-[2-((S)-3-hydroxymethyl-piperidin-1-yl)-2-oxo-acetylamino]pentanoic acid]
  Ki: 1 to 10 nM

## CS(=O)(=O)N1CCN(C(=O)C(=O)N[C@H](Cc2ccc(-c3cccc(Cl)c3)cc2)C[C@@H](O)C(=O)O)CC1 [Example 4-39, (2R,4R)-5-(3′-Chlorobiphenyl-4-yl)-2-hydroxy-4-[2-(4-methanesulfonyl-piperazin-1-yl)-2-oxo-acetylamino]pentanoic acid]
  Ki: 10 to 31.6 nM

## O=C(N[C@H](Cc1ccc(-c2cccc(Cl)c2)cc1)C[C@@H](O)C(=O)O)C(=O)N1CCC(CO)CC1 [Example 4-20, (2R,4R)-5-(3′-Chlorobiphenyl-4-yl)-2-hydroxy-4-[2-(4-hydroxymethyl-piperidin-1-yl)-2-oxo-acetylamino]pentanoic acid]
  Ki: ≤ 1 nM

## O=C(N[C@H](Cc1ccc(-c2cccc(Cl)c2)cc1)C[C@@H](O)C(=O)O)C(=O)N1CCC(C(=O)O)CC1 [Example 4-27, 1-[(1R,3R)-3-Carboxy-1-(3′-chlorobiphenyl-4-ylmethyl)-3-hydroxypropyl-aminooxalyl]-piperidine-4-carboxylic acid]
  Ki: 1 to 10 nM

## O=C(NNC(=O)C(=O)N[C@H](Cc1ccc(-c2cccc(Cl)c2)cc1)C[C@@H](O)C(=O)O)OCc1ccccc1 [Example 8-1, (2R,4R)-4-[2-(N′-Benzyloxycarbonyl-hydrazino)-2-oxo-acetylamino]-5-(3′-chloro-biphenyl-4-yl)-2-hydroxypentanoic acid]
  Ki: 10 to 31.6 nM

## Cc1ccncc1NC(=O)C(=O)N[C@H](Cc1ccc(-c2cccc(Cl)c2)cc1)C[C@@H](O)C(=O)O [Example 4-4, (2R,4R)-5-(3′-Chlorobiphenyl-4-yl)-2-hydroxy-4-[(4-methylpyridin-3-ylaminooxalyl)amino]pentanoic acid]
  Ki: 1 to 10 nM

## CCC(=O)C(=O)N[C@H](Cc1ccc(-c2cccc(Cl)c2)cc1)C[C@@H](O)C(=O)O [Example 1, (2R,4R)-5-(3′-Chlorobiphenyl-4-yl)-2-hydroxy-4-(2-oxobutyrylamino)pentanoic Acid]
  Ki: 1 to 10 nM

## O=C(NNc1cccc(Cl)c1)C(=O)N[C@H](Cc1ccc(-c2cccc(Cl)c2)cc1)C[C@@H](O)C(=O)O [Example 6-9, (2R,4R)-5-(3′-Chlorobiphenyl-4-yl)-4-{[N′-(3-chloro-phenyl)-hydrazinooxalyl]-amino}-2-hydroxypentanoic acid]
  Ki: 1 to 10 nM

## COCC(=O)N[C@H](Cc1ccc(-c2cccc(Cl)c2)cc1)C[C@@H](O)C(=O)O [Example 10-2, (2R,4R)-5-(3′-Chlorobiphenyl-4-yl)-2-hydroxy-4-(2-methoxyacetylamino)-pentanoic acid]
  Ki: 1 to 10 nM

## CC1(O)CCN(C(=O)C(=O)N[C@H](Cc2ccc(-c3cccc(Cl)c3)cc2)C[C@@H](O)C(=O)O)CC1 [Example 4-22, (2R,4R)-5-(3′-Chlorobiphenyl-4-yl)-2-hydroxy-4-[2-(4-hydroxy-4-methyl-piperidin-1-yl)-2-oxo-acetylamino]pentanoic acid]
  Ki: 1 to 10 nM

## CN(C)C(=O)C(=O)N[C@H](Cc1ccc(-c2cccc(Cl)c2)cc1)C[C@@H](O)C(=O)O [Example 4-11, (2R,4R)-5-(3′-Chlorobiphenyl-4-yl)-4-(dimethylaminooxalylamino)-2-hydroxy-pentanoic acid]
  Ki: 10 to 31.6 nM

## C[C@@H]1COC[C@H](C)N1C(=O)C(=O)N[C@H](Cc1ccc(-c2cccc(Cl)c2)cc1)C[C@@H](O)C(=O)O [Example 4-42, (2R,4R)-5-(3′-Chlorobiphenyl-4-yl)-4-[2-((3R,5S)-3,5-dimethylmorpholin-4-yl)-2-oxo-acetylamino]-2-hydroxypentanoic acid]
  Ki: 10 to 31.6 nM

## O=C(N[C@H](Cc1ccc(-c2cccc(Cl)c2)cc1)C[C@@H](O)C(=O)O)C(=O)N1CCCC[C@@H]1CO [Example 4-25, (2R,4R)-5-(3′-Chlorobiphenyl-4-yl)-2-hydroxy-4-[2-((R)-2-hydroxymethyl-piperidin-1-yl)-2-oxo-acetylamino]pentanoic acid]
  Ki: ≤ 1 nM

## O=C(N[C@H](Cc1ccc(-c2cccc(Cl)c2)cc1)C[C@@H](O)C(=O)O)C(=O)N1CC2(COC2)C1 [Example 4-50, (2R,4R)-5-(3′-Chlorobiphenyl-4-yl)-2-hydroxy-4-[2-(2-oxa-6-aza-spiro[3.3]hept-6-yl)-2-oxo-acetylamino]pentanoic acid]
  Ki: 10 to 31.6 nM

## CS(=O)(=O)C1CCN(C(=O)C(=O)N[C@H](Cc2ccc(-c3cccc(Cl)c3)cc2)C[C@@H](O)C(=O)O)C1 (stereo partly drawn) [Example 4-15, (2R,4R)-5-(3′-Chlorobiphenyl-4-yl)-2-hydroxy-4-[2-(3-methanesulfonyl-pyrrolidin-1-yl)-2-oxo-acetylamino]pentanoic acid]
  Ki: 1 to 10 nM

## O=C(N[C@H](Cc1ccc(-c2cccc(Cl)c2)cc1)C[C@@H](O)C(=O)O)C(=O)N1CCCC(C(=O)O)C1 (stereo partly drawn) [Example 4-28, 1-[(1R,3R)-3-Carboxy-1-(3′-chlorobiphenyl-4-ylmethyl)-3-hydroxypropyl-aminooxalyl]-piperidine-3-carboxylic acid]
  Ki: 1 to 10 nM

## CN(C)C(=O)N1CCN(C(=O)C(=O)N[C@H](Cc2ccc(-c3cccc(Cl)c3)cc2)C[C@@H](O)C(=O)O)CC1 [Example 4-40, (2R,4R)-5-(3′-Chlorobiphenyl-4-yl)-4-[2-(4-dimethylcarbamoyl-piperazin-1-yl)-2-oxo-acetylamino]-2-hydroxypentanoic acid]
  Ki: 10 to 31.6 nM

## O=C(COCc1ccccc1)N[C@H](Cc1ccc(-c2cccc(Cl)c2)cc1)C[C@@H](O)C(=O)O [Example 10-6, (2R,4R)-4-(2-Benzyloxy-acetylamino)-5-(3′-chlorobiphenyl-4-yl)-2-hydroxy-pentanoic acid]
  Ki: 10 to 31.6 nM

## O=C(Nc1ccc(Br)nc1)C(=O)N[C@H](Cc1ccc(-c2cccc(Cl)c2)cc1)C[C@@H](O)C(=O)O [Example 4-2, (2R,4R)-4-[(6-Bromopyridin-3-ylaminooxalyl)amino]-5-(3′-chlorobiphenyl-4-yl)-2-hydroxypentanoic acid]
  Ki: 10 to 31.6 nM

## C[C@@](CO)(C[C@@H](Cc1ccc(-c2cccc(Cl)c2)cc1)NC(=O)COCc1ccccc1)C(=O)O [Example 12, (2S,4R)-4-(2-Benzyloxyacetylamino)-5-(3′-chlorobiphenyl-4-yl)-2-hydroxymethyl-2-methyl-pentanoic acid]
  Ki: 10 to 31.6 nM

## O=C(NNC(=O)c1ccco1)C(=O)N[C@H](Cc1ccc(-c2cccc(Cl)c2)cc1)C[C@@H](O)C(=O)O [Example 8-5, (2R,4R)-5-(3′-Chlorobiphenyl-4-yl)-4-{2-[N′-(furan-2-carbonyl)-hydrazino]-2-oxo-acetylamino}-2-hydroxypentanoic acid]
  Ki: 1 to 10 nM

## C[C@@H]1CN(C(=O)C(=O)N[C@H](Cc2ccc(-c3cccc(Cl)c3)cc2)C[C@@H](O)C(=O)O)C[C@H](C)O1 [Example 4-45, (2R,4R)-5-(3′-Chlorobiphenyl-4-yl)-4-[2-((2R,6S)-2,6-dimethylmorpholin-4-yl)-2-oxo-acetylamino]-2-hydroxypentanoic acid]
  Ki: 1 to 10 nM

## N#CC1CCCN(C(=O)C(=O)N[C@H](Cc2ccc(-c3cccc(Cl)c3)cc2)C[C@@H](O)C(=O)O)C1 (stereo partly drawn) [Example 4-30, (2R,4R)-5-(3′-Chlorobiphenyl-4-yl)-4-[2-(3-cyanopiperidin-1-yl)-2-oxo-acetylamino]-2-hydroxypentanoic acid]
  Ki: 10 to 31.6 nM

## CONC(=O)C(=O)N[C@H](Cc1ccc(-c2cccc(Cl)c2)cc1)C[C@@H](O)C(=O)O [Example 4-6, (2R,4R)-5-(3′-Chlorobiphenyl-4-yl)-2-hydroxy-4-(methoxyaminooxalylamino)-pentanoic acid]
  Ki: 1 to 10 nM

## O=C(N[C@H](Cc1ccc(-c2cccc(Cl)c2)cc1)C[C@@H](O)C(=O)O)C(=O)N(O)c1ccccc1 [Example 4-9, (2R,4R)-5-(3′-Chlorobiphenyl-4-yl)-2-hydroxy-4-[(hydroxyphenylaminooxalyl)-amino]pentanoic acid]
  pKi: 8.0-9.0
